Values quoted from earlier work as cited in patent publication US7582314B2, “Compositions and methods for the management of hyperproliferative dermatological conditions” (Sami Labs Ltd., priority 2003, dated 2009).
Like-named read-outs stand apart in the source and are kept apart here.

Columns and labels:
[1] = tested on: plaque psoriasis; details: oral supplementation; psoriasis patients
[2] = tested on: damage to the skin induced by UV radiation; details: topical; human subjects
[3] = tested on: damage to the skin induced by UV radiation; details: topical; experimental animals

C[Se]CC[C@H](N)C(=O)O [selenomethionine]
efficacy as adjuvant treatment in plaque psoriasis [1]: ineffective
degree of damage to the skin induced by UV radiation [2]: reduces
degree of damage to the skin induced by UV radiation [3]: reduces
